The test system of series [1] is human hepatoblastoma cells (HepG2). Nature of the series: In vitro HepG2 proliferation assay (Incucyte confluency). Format: cell-based. The conditions noted are these: for Proliferation (%) of HepG2 with 200 µM Cpd and 1 µM Pan: 200 µM compound, 72 h, mean ± range/2 of two experiments; for Proliferation (%) of HepG2 with 200 µM Cpd and 1 µM Pan / Effect on HepG2 cells, in words: RPMI-1640 with 1 µM pantothenate. As to the method: HFF cells were maintained in vitro in DMEM supplemented with 10% (vol/vol) newborn calf serum, 50 units/mL penicillin, 50 µg/mL streptomycin, 10 µg/mL gentamicin, 0.2 mM L-glutamine, and 0.25 µg/mL amphotericin B, as previously described ([99]). HepG2 cells were maintained in RPMI-1640 medium (Thermo Fisher Scientific, catalogue number 72400120) supplemented with 10% (vol/vol) fetal bovine serum, 50 units/mL penicillin, and 50 µg/mL streptomycin.
In vitro HepG2 proliferation assays were performed similarly to the HFF proliferation assays with modifications. Confluent HepG2 cells were harvested by treatment with 1 × trypsin–EDTA and diluted in RPMI-1640 supplemented with 10% (vol/vol) fetal bovine serum. Assays were set up in 96-well microtiter plates with 20,000 cells per well. Puromycin (10 µM) was used as a non-proliferation control, and 0.1% (vol/vol) DMSO served as a 100% proliferation control. The plates were incubated at 37°C in a CO2 incubator for 72 h, and the Incucyte Live-Cell Analysis System (Essen BioScience) was used to capture cellular changes and assess cell growth in each well over time as described above for the HFF proliferation assays. The bottom of the curve was constrained to 0 when fitting for HepG2 proliferation assays using GraphPad Prism.

In another series the target is T1, HsPanK3 (Homo sapiens, UniProt Q9H999).
T1 sequence (Q9H999 12-368): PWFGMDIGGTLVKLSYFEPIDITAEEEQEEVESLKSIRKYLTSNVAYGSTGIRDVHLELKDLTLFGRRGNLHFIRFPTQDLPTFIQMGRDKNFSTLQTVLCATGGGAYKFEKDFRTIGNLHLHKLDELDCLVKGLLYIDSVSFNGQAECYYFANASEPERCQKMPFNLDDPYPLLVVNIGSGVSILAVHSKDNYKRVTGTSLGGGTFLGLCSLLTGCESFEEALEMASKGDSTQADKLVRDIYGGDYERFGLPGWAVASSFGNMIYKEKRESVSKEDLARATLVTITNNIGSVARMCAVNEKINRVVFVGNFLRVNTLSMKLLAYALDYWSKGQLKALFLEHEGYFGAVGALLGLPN
Nature of the series: HsPanK kinetic assay (pyruvate kinase/lactic dehydrogenase coupled, NADH at 340 nm). Format: biochemical. Set-up: catalytic core domain of human PanK3 (amino acid residues 12–368); made in house; host or cells: E. coli BL21(DE3). The settings on record: for Substrate inhibition of HsPanK3: at rising substrate concentration (0–2,000 µM). As to the method:
The gene encoding the catalytic core domain of human PanK3 (amino acid residues 12–368) was synthesized and cloned into the pET28a(+) expression vector using the NdeI and BamHI restriction sites to produce an N-terminal His6-tagged protein (Bio Basic Inc.). The plasmid was transformed into E. coli BL21(DE3) cells, which were cultured in Terrific Broth (TB) medium containing 50 µg/mL kanamycin at 37°C. When the culture reached an optical density at 600 nm (OD600) of 0.6, protein expression was induced by adding 1.0 mM isopropyl β-D-thiogalactoside (IPTG), followed by incubation at 18°C for 17–18 h. The cells were then harvested and resuspended in lysis buffer (20 mM Tris-HCl, pH 7.5, 500 mM NaCl, 5 mM imidazole, 5% [vol/vol] glycerol) supplemented with 1 mM PMSF (phenylmethylsulfonyl fluoride) and lysozyme (5 mg/g of the cell pellet). The suspension was then sonicated on ice, and the resulting lysate was centrifuged twice at 54,000 × g for 30 min at 4°C.
The clarified supernatant was incubated with Ni-NTA resin (Cytiva) pre-equilibrated with lysis buffer containing 5 mM imidazole at 4°C. After binding, the resin was washed with lysis buffer containing 30 mM imidazole, then eluted with lysis buffer containing 250 mM imidazole. The eluted HsPanK3 protein was dialyzed against storage buffer (20 mM Tris-HCl, pH 7.5, 200 mM NaCl, 5% [vol/vol] glycerol) and concentrated. The purified protein was stored at −80°C. Protein purity was assessed using SDS-PAGE and deemed >50% (Fig. S4).
The enzyme assay was adapted from a previously described method ([103]), which links the production of ADP to the consumption of NADH through the enzymatic activities of pyruvate kinase and lactic dehydrogenase. Reactions were conducted in 96-well microtiter plates, and the decrease in NADH concentration was measured at 340 nm at 30 s intervals after incubation at 30°C. Each reaction mixture (200 µL) contained the desired compound (substrate) at variable concentrations (0–2,000 µM), ATP (1.5 mM), NADH (0.3 mM), phospho(enol)pyruvate (2.0 mM), MgCl2 (10 mM), KCl (20 mM), a commercial pyruvate kinase/lactic dehydrogenase mixture (12 units, Sigma-Aldrich), and pantothenate kinase (0.48 µM) in 50 mM Tris–HCl buffer (pH 7.6). The reaction was initiated with the addition of ATP. The kinetic parameters were determined by fitting the rate data into the Michaelis–Menten equation using GraphPad Prism 8.0 with nonlinear regressions. Data were collected from three independent experiments, each performed in triplicate to verify the trends and optimize the selected concentrations. The kinetic parameters were calculated from the most complete triplicate set of data, and errors represent SEM.

Setting [2] is: relative to natural substrate pantothenate.

The values below come from article PMC12406685, “Thiazole substitution of a labile amide bond—a new option toward antiplasmodial pantothenamide-mimics” (Antimicrobial Agents and Chemotherapy, 2025).

Regarding `CC(C)(CO)[C@@H](O)C(=O)NCc1csc(-c2ccccc2)n1` [Compound 2e], the “Proliferation (%) of HepG2 with 200 µM Cpd and 1 µM Pan” value (“Proliferation (%) of HepG2” for short) in series [1] was 91 ± 4%. In addition, the “Effect on HepG2 cells, in words” value in series [1] (200 µM) is “completely inactive”. Moreover, at HsPanK3, the inhibition constant (Ki) came out at 4.34 mM; the “kcat of HsPanK3 compared with that of pantothenate, in words” value is recorded as “same as”; the “Substrate inhibition of HsPanK3” value was “Substrate inhibition”. Besides, at HsPanK3 (setting [2]), the “Fold higher Km of HsPanK3 for compound compared to pantothenate” value amounted to 2.8 fold.
`CC(C)(CO)[C@@H](O)C(=O)NCc1cnc(-c2ccccc2)s1` [Compound 3f]: the “Proliferation (%) of HepG2” value in series [1] worked out at 89 ± 2%. Besides, in series [1] (200 µM), the “Effect on HepG2 cells, in words” value was “completely inactive”. Further, the “kcat of HsPanK3 compared with that of pantothenate, in words” value at HsPanK3 is reported as “slightly higher”. Besides, the “Fold lower kcat/Km of HsPanK3 compared to pantothenate” value (shortened to “Fold lower kcat/Km of HsPanK3”) at HsPanK3 (setting [2]) is reported as ~ 3 fold.
In the case of `CC(C)(CO)[C@@H](O)C(=O)NCc1nc(CCc2ccccc2)cs1` [Compound 1e], in series [1], the “Proliferation (%) of HepG2” value worked out at 55 ± 1%. The “Effect on HepG2 cells, in words” value in series [1] (200 µM) was “some low-level toxicity”. For the same molecule, in series [1] (Homo sapiens, HepG2, 200 µM), the inhibition at 200 µM was around 50%. Also, the “kcat of HsPanK3 compared with that of pantothenate, in words” value at HsPanK3 was “slightly lower”.
`CC(C)(CO)[C@@H](O)C(=O)NCc1csc(Cc2ccccc2)n1` [Compound 2c]: in series [1], the “Proliferation (%) of HepG2” value amounted to 93 ± 2%. Moreover, the “Effect on HepG2 cells, in words” value in series [1] (200 µM) is “completely inactive”. Moreover, on HsPanK3, the inhibitory constant (Ki) amounted to 2.65 mM; the “kcat of HsPanK3 compared with that of pantothenate, in words” value is reported as “same as”; the “Substrate inhibition of HsPanK3” value was “Substrate inhibition”. For the same molecule, the “Fold lower kcat/Km of HsPanK3” value on HsPanK3 (setting [2]) is reported as ~ 3 fold.
For `CCCCCc1csc(CNC(=O)[C@H](O)C(C)(C)CO)n1` [Compound 1c], the “Proliferation (%) of HepG2” value in series [1] stood at 62 ± 7%. Further, the “Effect on HepG2 cells, in words” value in series [1] (200 µM) is “some low-level toxicity”. Moreover, at HsPanK3, the “kcat of HsPanK3 compared with that of pantothenate, in words” value is given as “same as”. The “Fold lower kcat/Km of HsPanK3” value on HsPanK3 (setting [2]) is listed as ~ 3 fold.
`CCCCc1csc(CNC(=O)[C@H](O)C(C)(C)CO)n1` [Compound 1a]: the “Proliferation (%) of HepG2” value in series [1] worked out at 71 ± 11%. Moreover, the “Effect on HepG2 cells, in words” value in series [1] (200 µM) is “some low-level toxicity”. The “kcat of HsPanK3 compared with that of pantothenate, in words” value at HsPanK3 is reported as “same as”.
